Results taken from patent US6586425B2, “Cytoskeletal active agents for glaucoma therapy” (Wisconsin Alumni Research Foundation, priority 1996, dated 2003).
Read-outs that look alike come from different tables or passages of the source.

Experiments:
living monkey eye = conditions: in vivo
living monkey eyes [1] = experiment: Aqueous humor protein concentration (Lowry method); assay type: in vivo, cynomolgus monkeys (Macaca fascicularis); conditions: for [Protein]AC increase vs contralateral control eyes: 4 μg LAT-B topical, insignificant
Text: Approximately 5.5 hr after LAT-A and vehicle (25% DMSO) administration, or approximately 6.5 hr after LAT-B and vehicle (25% DMSO) administration, when AHF measurements had been completed, a sample of AH was obtained under a Zeiss surgical microscope, using a 30-gauge needle connected via polyethylene tubing to a tuberculin syringe. The needle was threaded through the corneal stroma for 6 mm, then directed into the AC so that the wound was self-sealing. AH entered the tubing by very gentle suction with the tuberculin syringe; only occasionally was brief mild pressure on the cornea with a needle holder required to promote the initial flow of AH into the tubing via the very thin needle. Approximately 60-80 μl of AH was removed, leaving a shallow but not completely flattened AC. In separate protocols with different monkeys, AH was similarly obtained 2 hr after 42 μg LAT-A or 1 hr after 4 μg LAT-B to one eye and vehicle to the opposite eye. The AH samples were stored at −20° C. for up to 24 hr. The protein concentration in each sample was assayed by the Lowry method, as known in the art (See e.g., Lowry et al., J. Biol. Chem., 193:265-275[1951]; and Peterson et al., Anal. Biochem., 100:201-220[1979]), in duplicate, and the result averaged. Duplicate sets of protein standards containing 0, 1, 3, 5, 10, 20, 40, or 60 μg bovine serum albumin (BSA) were assayed by the same method and results averaged and graphed to give a linear equation that was used to estimate the protein content in the AH samples. The optical density of each sample was measured at 660 nm using a Spectronic 20 Spectrophotometer (Bausch and Lomb).

living monkey eyes [2] = experiment: Slit lamp biomicroscopy (ocular tolerability); assay type: in vivo, cynomolgus monkeys (Macaca fascicularis); conditions: for lens appearance: after topical drug; for corneal epithelium at slit lamp: topical LAT-A (21 or 42 μg) or LAT-B (4 μg) in 25% DMSO; for eyes that developed flare (1-2+ on a scale of 0-4+): topical, recovered by 24-48 hr
Protocol: e) Ocular Tolerability/Toxicity: Ocular exams, including slit lamp biomicroscopy (Zeiss or Haag-Streit), gonioscopy, and binocular indirect ophthalmoscopy (American Optical or Keeler), were performed by a trained ophthalmologist, using when necessary contact lenses specially fabricated for the small monkey eye (Kaufman and Wallow, Exp. Eye Res., 40:883-885[1985]). In addition, specular microscopy was used to evaluate drug effects on the corneal endothelium.
The AC of both eyes of was cannulated with a branched needle as above, after which baseline facility measurements were taken for 35-45 min. With reservoirs closed, 2×5 μl drops of 200 μM (˜0.8 μg) or 4×5 μl drops of 500 μM (˜4.0 μg) LAT-B were given to one eye of the prone monkey, allowing 60-90 sec between drops. […] Vehicle (10 or 25% DMSO respectively) was given simultaneously to the opposite eye in a similar manner. The doses were chosen to give […] and 1 μM LAT-B concentrations respectively in the 100 μl monkey AC (See e.g., Erickson-Lamy et al., Arch. Opthalmol., 102:1815-1820[1984]), assuming 1% penetration and no initial drug loss from the AC (Asseff et al., Amer. J. Ophthalmol., 75:212-215[1973]; Harris, in Leopold (ed.), Symposium on Ocular Therapy, C. V. Mosby, St. Louis, Mo., [1968], pp. 96-105; Janes and Stiles, Arch. Ophthahnol., 62:69-74[1959]). The perfusion system remained closed for 2 hr, after which facility measurements were taken for 90 min. Biomicroscopy was performed by an ophthalmologist before and 3, 7 and 14 days after drug administration.
For slit lamp biomicroscopy, a trained ophthalmologist examined all eyes by slit lamp, for integrity of the corneal epithelium and endothelium, presence of flare or cells in the anterior chamber and clarity of the lens. All animals were free of ocular abnormalities when studied.

corneal endothelium = conditions: for Cell count Exp, drug eye / Cell count Exp, drug/Vehicle / Cell count Exp, drug−Vehicle / Cell count Exp/BL, drug eye / Cell count Exp/BL, drug/Vehicle / Cell count Exp/BL, drug−Vehicle: n=4
living monkey eyes [3] = experiment: Slit lamp biomicroscopy (ocular tolerability); assay type: in vivo, cynomolgus monkeys (Macaca fascicularis); conditions: for corneal endothelial cell borders: one to 5 hr after topical drug

C/C1=C/C(=O)O[C@@H]2C[C@@H](CC[C@H](C)/C=C\C=C\CC1)O[C@@](O)([C@@H]1CSC(=O)N1)C2 [LAT-A]
BL2/BL1, Rx eye (living monkey eye): 1.24 ± 0.19 | BL2/BL1, Rx/Cont (living monkey eye): 1.12 ± 0.15 | Baseline facility BL2, Rx eye (living monkey eye): 0.42 ± 0.06 μl/min/mmHg | Baseline facility BL2, Rx/Cont (living monkey eye): 1.07 ± 0.17 | effect on facility (living monkey eye): probably ineffective | reversibility of the facility-effect (living monkey eye): minimal | [Protein]AC vs vehicle-treated eyes (living monkey eyes [1]; 42 μg LAT-A topical, 5.5 hr): no difference in protein concentration | [Protein]AC higher than in vehicle-treated eyes (living monkey eyes [1]; 42 μg LAT-A topical, two hr, n=7): 25±9% | lens appearance (living monkey eyes [2]): always appeared normal | corneal epithelium at slit lamp (living monkey eyes [2]): mild transient corneal epithelial cloudiness | eyes that developed flare (1-2+ on a scale of 0-4+) (living monkey eyes [2]): Four LAT-A- treated eyes | Cell count Exp, drug eye (corneal endothelium; 21 μg LAT-A topical, 3 days): 2488 ± 63 cell per square millimeter | Cell count Exp, drug/Vehicle (corneal endothelium; 21 μg LAT-A topical, 3 days): 1.02 ± 0.03 | Cell count Exp, drug−Vehicle (corneal endothelium; 21 μg LAT-A topical, 3 days): 44 ± 62 cell per square millimeter | Cell count Exp/BL, drug eye (corneal endothelium; 21 μg LAT-A topical, 3 days): 0.98 ± 0.01 | Cell count Exp/BL, drug/Vehicle (corneal endothelium; 21 μg LAT-A topical, 3 days): 1.06 ± 0.02 | Cell count Exp/BL, drug−Vehicle (corneal endothelium; 21 μg LAT-A topical, 3 days): 0.05 ± 0.10 | Cell count Exp, drug eye (corneal endothelium; 21 μg LAT-A topical, 7 days): 2488 ± 97 cell per square millimeter | Cell count Exp, drug/Vehicle (corneal endothelium; 21 μg LAT-A topical, 7 days): 0.98 ± 0.06 | Cell count Exp, drug−Vehicle (corneal endothelium; 21 μg LAT-A topical, 7 days): −69 ± 140 cell per square millimeter | Cell count Exp/BL, drug eye (corneal endothelium; 21 μg LAT-A topical, 7 days): 0.98 ± 0.03 | Cell count Exp/BL, drug/Vehicle (corneal endothelium; 21 μg LAT-A topical, 7 days): 1.02 ± 0.08 | Cell count Exp/BL, drug−Vehicle (corneal endothelium; 21 μg LAT-A topical, 7 days): 0.01 ± 0.07 | Cell count Exp, drug eye (corneal endothelium; 21 μg LAT-A topical, 14 days): 2694 ± 28 cell per square millimeter | Cell count Exp, drug/Vehicle (corneal endothelium; 21 μg LAT-A topical, 14 days): 1.01 ± 0.06 | Cell count Exp, drug−Vehicle (corneal endothelium; 21 μg LAT-A topical, 14 days): 0 ± 147 cell per square millimeter | Cell count Exp/BL, drug eye (corneal endothelium; 21 μg LAT-A topical, 14 days): 1.06 ± 0.03 | Cell count Exp/BL, drug/Vehicle (corneal endothelium; 21 μg LAT-A topical, 14 days): 1.04 ± 0.03 | Cell count Exp/BL, drug−Vehicle (corneal endothelium; 21 μg LAT-A topical, 14 days): 0.04 ± 0.03 | cell densities vs baseline (corneal endothelium; 21 μg LAT-A, day 3): essentially the same as at baseline | cell densities vs baseline or contralateral eyes (corneal endothelium; 42 μg LAT-A, day 3): slightly (but not significantly) lower cell densities than baseline or contralateral eyes | cell density and morphology (corneal endothelium; LAT-A either dose, day 7): cell density and morphology had returned to baseline | countability of corneal endothelial cells (corneal endothelium; either dose of LAT-A (21 or 42 μg), 1 or 3 hr): could not be counted | recovery of endothelial refractile spots (living monkey eyes [3]; higher dose of LAT-A (42 μg)): most recovered by 10 hr | recovery of endothelial refractile spots (living monkey eyes [3]; lower dose of LAT-A (21 μg)): recovered almost completely by 6 hr | corneal endothelial cell borders (living monkey eyes [3]): indistinct

C/C1=C/C(=O)O[C@@H]2C[C@@H](CC[C@H](C)/C=C\CC1)O[C@@](O)([C@@H]1CSC(=O)N1)C2 [LAT-B]
BL2/BL1, LAT-B eye (living monkey eye): 0.90 ± 0.05 | BL2/BL1, LAT-B/Veh (living monkey eye): 0.96 ± 0.06 | Baseline facility BL2, LAT-B eye (living monkey eye): 0.33 ± 0.03 μl min^−1 mmHg^−1 | Baseline facility BL2, LAT-B/Veh (living monkey eye): 1.01 ± 0.08 | baseline facility vs baseline immediately prior to LAT-B (living monkey eye): not significantly different | facility increase, average over 90 min (living monkey eye): 456±128% | initial post-drug facility increase over final baseline value (living monkey eye): 379±125% | potency relative to LAT-A in the live monkey TM (living monkey eye): at least 10 fold | [Protein]AC increase vs contralateral control eyes (living monkey eyes [1]; 1 hr, n=4): 80±51% | [Protein]AC increase vs contralateral control eyes (living monkey eyes [1]; 6.5 hr, n=6): 11±24% | recovery of corneal endothelium (living monkey eyes [2]; 4 μg LAT-B): by 6 hr, the corneal endothelium of almost all treated eyes had recovered | biomicroscopy findings (living monkey eyes [2]; LAT-B 0.8 μg topical, 3 days after drug and AC perfusion): no adverse effects | biomicroscopy findings (living monkey eyes [2]; LAT-B 4.0 μg topical, day 3 after perfusion): two drug-treated eyes exhibited a small clot of blood in the AC | biomicroscopy findings (living monkey eyes [2]; LAT-B topical, day 7): all eyes appeared biomicroscopically normal | lens appearance (living monkey eyes [2]): always appeared normal | corneal epithelium at slit lamp (living monkey eyes [2]): mild transient corneal epithelial cloudiness | eyes that developed flare (1-2+ on a scale of 0-4+) (living monkey eyes [2]): one LAT-B-treated eye | Cell count Exp, drug eye (corneal endothelium; 42 μg LAT-A topical, 3 days): 2188 ± 430 cell per square millimeter | Cell count Exp, drug/Vehicle (corneal endothelium; 42 μg LAT-A topical, 3 days): 0.86 ± 0.11 | Cell count Exp, drug−Vehicle (corneal endothelium; 42 μg LAT-A topical, 3 days): −281 ± 248 cell per square millimeter | Cell count Exp/BL, drug eye (corneal endothelium; 42 μg LAT-A topical, 3 days): 0.83 ± 0.14 | Cell count Exp/BL, drug/Vehicle (corneal endothelium; 42 μg LAT-A topical, 3 days): 0.80 ± 0.11 | Cell count Exp/BL, drug−Vehicle (corneal endothelium; 42 μg LAT-A topical, 3 days): −0.18 ± 0.10 | Cell count Exp, drug eye (corneal endothelium; 42 μg LAT-A topical, 7 days): 2494 ± 166 cell per square millimeter | Cell count Exp, drug/Vehicle (corneal endothelium; 42 μg LAT-A topical, 7 days): 1.04 ± 0.03 | Cell count Exp, drug−Vehicle (corneal endothelium; 42 μg LAT-A topical, 7 days): 94 ± 68 cell per square millimeter | Cell count Exp/BL, drug eye (corneal endothelium; 42 μg LAT-A topical, 7 days): 0.94 ± 0.04 | Cell count Exp/BL, drug/Vehicle (corneal endothelium; 42 μg LAT-A topical, 7 days): 0.96 ± 0.02 | Cell count Exp/BL, drug−Vehicle (corneal endothelium; 42 μg LAT-A topical, 7 days): −0.04 ± 0.02 | Cell count Exp, drug eye (corneal endothelium; 42 μg LAT-A topical, 14 days): 2581 ± 143 cell per square millimeter | Cell count Exp, drug/Vehicle (corneal endothelium; 42 μg LAT-A topical, 14 days): 1.03 ± 0.05 | Cell count Exp, drug−Vehicle (corneal endothelium; 42 μg LAT-A topical, 14 days): 75 ± 108 cell per square millimeter | Cell count Exp/BL, drug eye (corneal endothelium; 42 μg LAT-A topical, 14 days): 0.98 ± 0.02 | Cell count Exp/BL, drug/Vehicle (corneal endothelium; 42 μg LAT-A topical, 14 days): 0.95 ± 0.03 | Cell count Exp/BL, drug−Vehicle (corneal endothelium; 42 μg LAT-A topical, 14 days): −0.05 ± 0.03 | corneal endothelial cell borders (living monkey eyes [3]): indistinct
